From patent publication US11542249B2, “BTK inhibitor compounds” (Eli Lilly and Company, priority 2017, dated 2023)

Legend:
human BTK = human BTK (Homo sapiens (Human), UniProt Q06187); assay: BTK LANTHASCREEN Eu Kinase Binding Assay; conditions: IC50 value ± standard deviation; full-length His-labeled BTK, kinase tracer 236; read-out: hBTK Rel IC50
Method: (§1) BTK and EGFR in Vitro Assays:
(§2) The BTK and EGFR biochemical assays utilize LANTHASCREEN® Eu Kinase Binding Assays from Thermo Fisher Scientific, measuring the binding of the kinase with a […] tracer. The assay buffer consists of 50 mM HEPES pH 7.5, 0.01% BRU™-35, 10 mM MgCl2, 1 mM EGTA, and 1 mM DTT. The test compounds are diluted and added to the assay plate with a Labcyte ECHO® 555 liquid handler. The compounds are tested in 10 point dose response curves (100 μM-0.005 μM) with a maximum DMSO concentration of 1%. The assays are performed in 20 μL in low-volume 384-well white proxiplates. For the BTK assay, the concentration of full-length His-labeled BTK in the assay is 5 nM, the Eu-anti-His antibody is 2 nM, and the kinase tracer 236 is 60 nM. For the EGFR assay, the concentration of truncated (amino acids 668-1210) GST-labeled EGFR is 5 nM, the Eu-anti-GST antibody is 2 nM, and the kinase tracer 199 is 10 nM. The components of the assay (compound, enzyme/antibody, tracer) are assembled and incubated for 30 min prior to being read on a Perkin-Elmer EnVision with excitation at 340 nm, tracer emission at 665 nm, and antibody emission at 615 nm. The signal ratio is converted to percent inhibition using the following equation: % Inhibition=100−[(Test Compound−Median Minimum)/(Median Maximum−Median Minimum)×100].
(§3) The following Table 1 and Table 2 describes the relative IC50 data vs. human BTK, human EGFR, and human whole blood CD69.

[1] = test system: activated B cells in human whole blood (CD69); assay: Human Whole Blood CD69 in vitro assay (B cell activation, flow cytometry); format: cell-based; conditions: IC50 value ± standard deviation, anti-human-IgD-Dextran stimulation, read-out: HWB CD69 Rel IC50
Method: Human Whole Blood CD69 in Vitro Assay:
The HWB CD69 assay measures activated B cells in human whole blood using a flow cytometer. Compounds are diluted and added to assay plates with a Labcyte ECHO® 555 liquid handler. Compounds are tested in 10 point dose response curves (20 μM-0.001 μM) in 96-well v-bottom plates with a maximum DMSO concentration of 0.2%. Fresh blood from individual healthy volunteer is mixed with HEPES (0.5 ml HEPES added per 10 ml blood) and 100 μl/well is added to compound plates. The plates are sealed and incubated in a 37° C. incubator for 3 h. Anti-human-IgD-Dextran is added to each well to give a final concentration of 100 ng/ml, mixed, and put back into the incubator. After 1 h, the cells are washed with cold FACS buffer and transferred to a deep well plate. The cells are incubated with anti-human CD69-PE (BIOLEGEND®, clone FN50) and anti-human CD19-APC (BIOLEGEND®, clone HIB19) antibodies on ice for 20 min. The cells are washed and incubated in eBioscience™ 1-step Fix/Lyse solution (10×) at RT to lyse the red blood cells and fix the other cells. The white cells are pelleted and washed in FACS buffer and then brought up in read buffer. The suspended cells are transferred to 96-well round bottom plates and read on an IntelliCyt iQue® Screener Plus flow cytometer. From the SSC (Side Scatter Channel) vs FSC (Forward Scatter Channel) graph, the lymphocytes are identified. Lymphocytes are identified with gated on positive CD19 marker for quantify CD69 (a marker of activated B lymphocytes) MFI (mean fluorescent intensity/cell). The signal ratio is converted to percent inhibition using the following equation: % Inhibition=100−[(Test Compound−Median Min)/(Median Max−Median Min)×100].
as §3

human EGFR = human EGFR (Homo sapiens (Human), UniProt P00533); assay: EGFR LANTHASCREEN Eu Kinase Binding Assay; conditions: IC50 value ± standard deviation; truncated GST-labeled EGFR, kinase tracer 199; read-out: hEGFR Rel IC50
human EGFR, sequence (P00533 668-1210): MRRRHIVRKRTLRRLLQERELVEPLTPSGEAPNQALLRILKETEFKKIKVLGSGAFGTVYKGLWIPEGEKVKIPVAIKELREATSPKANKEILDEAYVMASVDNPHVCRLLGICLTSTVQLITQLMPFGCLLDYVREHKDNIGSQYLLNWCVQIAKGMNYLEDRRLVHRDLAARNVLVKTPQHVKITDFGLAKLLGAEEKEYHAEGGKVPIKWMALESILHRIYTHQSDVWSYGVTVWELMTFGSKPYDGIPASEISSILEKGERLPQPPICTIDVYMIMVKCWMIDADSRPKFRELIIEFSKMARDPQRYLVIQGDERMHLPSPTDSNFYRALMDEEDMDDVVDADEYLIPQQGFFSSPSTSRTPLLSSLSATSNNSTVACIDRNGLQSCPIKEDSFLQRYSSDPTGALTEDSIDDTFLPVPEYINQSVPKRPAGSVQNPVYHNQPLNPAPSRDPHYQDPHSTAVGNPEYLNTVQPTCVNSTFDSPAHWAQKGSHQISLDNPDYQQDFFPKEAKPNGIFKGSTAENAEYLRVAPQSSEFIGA
Method: as §1, §2

human BTK, sequence (Q06187 whole entry): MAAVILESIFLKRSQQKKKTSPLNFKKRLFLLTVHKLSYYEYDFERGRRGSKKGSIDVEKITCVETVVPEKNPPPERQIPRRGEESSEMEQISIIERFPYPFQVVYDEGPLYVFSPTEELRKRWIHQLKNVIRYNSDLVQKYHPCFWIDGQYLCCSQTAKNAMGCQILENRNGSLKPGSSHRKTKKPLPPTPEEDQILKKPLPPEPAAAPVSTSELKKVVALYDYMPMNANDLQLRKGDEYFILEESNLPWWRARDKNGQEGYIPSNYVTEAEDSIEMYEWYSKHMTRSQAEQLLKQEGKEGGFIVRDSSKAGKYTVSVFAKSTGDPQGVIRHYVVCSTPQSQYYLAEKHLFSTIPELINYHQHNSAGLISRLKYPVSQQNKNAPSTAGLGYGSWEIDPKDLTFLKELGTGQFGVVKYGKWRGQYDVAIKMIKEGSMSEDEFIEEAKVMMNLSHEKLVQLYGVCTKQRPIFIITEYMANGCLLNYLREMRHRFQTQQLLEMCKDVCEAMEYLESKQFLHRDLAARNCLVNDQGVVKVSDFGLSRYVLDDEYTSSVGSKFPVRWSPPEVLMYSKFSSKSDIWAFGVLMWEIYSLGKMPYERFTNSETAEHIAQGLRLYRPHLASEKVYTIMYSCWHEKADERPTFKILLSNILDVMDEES

Structure (SMILES) | IC50 (human BTK) [nM] | IC50 [1] [nM] | IC50 (human EGFR) [nM]
C=CC(=O)N1CC(Nc2cncc(-c3cnc(Oc4cc(F)cc(F)c4)nc3)n2)C1 [Example 30, 1-[3-[[6-[2-(3,5-difluorophenoxy)pyrimidin-5-yl]pyrazin-2-yl]amino]azetidin-1-yl]prop-2-en-1-one] | 43.2 ± 11.9 | 815 ± 110 | 1080 ± 229
C=CC(=O)N1CC(Nc2cncc(-c3cnc(Oc4ccc(Cl)cc4)nc3)n2)C1 [Example 41, 1-[3-[[6-[2-(4-chlorophenoxy)pyrimidin-5-yl]pyrazin-2-yl]amino]azetidin-1-yl]prop-2-en-1-one] | 96.8 ± 15.6 | 2160 ± 420 | 2110 ± 487
C=CC(=O)N1CC[C@H](Nc2cncc(-c3cnc(Nc4cccc(Cl)c4)nc3)n2)C1 [Example 34, 1-[(3S)-3-[[6-[2-(3-chloroanilino)pyrimidin-5-yl]pyrazin-2-yl]amino]pyrrolidin-1-yl]prop-2-en-1-one] | 18.3 | 130 ± 44.7 | 639 ± 256
C=CC(=O)N1CC(C)(Nc2cncc(-c3cnc(Oc4cccc(Cl)c4)nc3)n2)C1 [Example 29, 1-[3-[[6-[2-(3-chlorophenoxy)pyrimidin-5-yl]pyrazin-2-yl]amino]-3-methyl-azetidin-1-yl]prop-2-en-1-one] | 17.7 ± 1.35 | 584 ± 372 | 3470 ± 911
C=CC(=O)N1CC(Nc2cncc(-c3cnc(Oc4cccc(OC(F)F)c4)nc3)c2)C1 [Example 4, 1-[3-[[5-[2-[3-(difluoromethoxy)phenoxy]pyrimidin-5-yl]-3-pyridyl]amino]azetidin-1-yl]prop-2-en-1-one] | 9.98 ± 4.3 | 110 ± 79.4 | 872 ± 456
C=CC(=O)N1CCC(Nc2cncc(-c3cnc(Nc4cccc(C(F)(F)F)n4)nc3)c2)CC1 [Example 21, 1-[4-[[5-[2-[[6-(trifluoromethyl)-2-pyridyl]amino]pyrimidin-5-yl]-3-pyridyl]amino]-1-piperidyl]prop-2-en-1-one] | 8.84 ± 1.21 | 160 ± 38.2 | > 100000
CN(C)C/C=C/C(=O)N1CCC(Nc2cncc(-c3cnc(Nc4cccc(Cl)c4)nc3)c2)CC1 [Example 23, (E)-1-[4-[[5-[2-(3-chloroanilino)pyrimidin-5-yl]-3-pyridyl]amino]-1-piperidyl]-4-(dimethylamino)but-2-en-1-one] | 24.1 ± 4.28 | 475 ± 166 | 26500 ± 2880

Stronger by IC50 (human BTK), values ahead:

IC50 (human BTK) [nM] | IC50 [1] [nM] | IC50 (human EGFR) [nM] | Structure (SMILES)
5.58 ± 0.182 | 144 ± 53.4 | 54.9 ± 15.4 | C=CC(=O)N1CC(Nc2cncc(-c3cnc(Nc4cccc(C)n4)nc3)n2)C1 [Example 40, 1-[3-[[6-[2-[(6-methyl-2-pyridyl)amino]pyrimidin-5-yl]pyrazin-2-yl]amino]azetidin-1-yl]prop-2-en-1-one]
6.95 ± 0.395 | 200 ± 52.4 | 509 ± 246 | C=CC(=O)N1CC(C)(Nc2cncc(-c3cnc(Oc4cccc(Cl)c4)nc3)c2)C1 [Example 12, 1-[3-[[5-[2-(3-chlorophenoxy)pyrimidin-5-yl]-3-pyridyl]amino]-3-methyl-azetidin-1-yl]prop-2-en-1-one]
5.6 | 103 ± 60.6 | 1460 ± 200 | C=CC(=O)N1CC[C@H](Nc2cncc(-c3cnc(Nc4cccc(OC(F)F)c4)nc3)n2)C1 [Example 39, 1-[(3S)-3-[[6-[2-[3-(difluoromethoxy)anilino]pyrimidin-5-yl]pyrazin-2-yl]amino]pyrrolidin-1-yl]prop-2-en-1-one]
< 5 | 107 ± 45.4 | 37.3 ± 26.1 | C=CC(=O)N1CC(Nc2cncc(-c3cnc(Nc4ccc(F)c(Cl)c4)nc3)n2)C1 [Example 35, 1-[3-[[6-[2-(3-chloro-4-fluoro-anilino)pyrimidin-5-yl]pyrazin-2-yl]amino]azetidin-1-yl]prop-2-en-1-one]
< 5 | 71 ± 12.8 | 247 ± 99.3 | C=CC(=O)N1CC(Nc2cncc(-c3cnc(Nc4cccc(C(F)(F)F)c4)nc3)c2)C1 [Example 18, 1-[3-[[5-[2-[3-(trifluoromethyl)anilino]pyrimidin-5-yl]-3-pyridyl]amino]azetidin-1-yl]prop-2-en-1-one]
